Results reported in US20040152119A1, “Solid phase sequencing” (priority 2003, published 2004).

Tested on: cloned DNA polymerase I genetically engineered to eliminate 3′-5′ exonuclease activity, 5′-3′exonuclease activity and discrimination against dideoxynucleotides
Test: Nucleic acid sequence detection by polymerase incorporation of gamma-phosphate-labeled dideoxynucleotide in the presence of shrimp alkaline phosphatase (fluorescence)
Format: biochemical
Conditions: 23° C.; for dye emission with Primer: Template 1: next template nucleotide dC (SEQ ID NO: 2); for dye emission with Primer: Template 2: next template nucleotide dT (SEQ ID NO: 3)
Experimental: Reactions were assembled at room temperature (23° C.) using the dideoxynucleotide of Example (1). Reactions contained primer template combinations having a single oligonucleotide primer (represented by SEQ ID NO: 1) annealed to one of two different oligonucleotide templates with either a dC or a dT as the next template nucleotide adjacent the 3′ terminus of the primer, corresponding to SEQ ID NO: 2 and SEQ ID NO: 3, respectively.
Referring now to FIG. 1, for template 1 (SEQ ID NO: 2) in the present example, DNA polymerase would be expected to extend the primer with labeled ddGTP. Similarly, for template 2 (SEQ ID NO: 3) in FIG. 1, DNA polymerase would be expected to extend the primer with ddATP, but not with labeled ddGTP.
Reaction conditions: A 70 μl reaction containing 25 mM Tris, pH 8.0, 5% glycerol 5 mM MgC12, 0.5 mM beta-mercaptoethanol, 0.01% tween-20, 0.25 units shrimp alkaline phosphatase, 100 nM primer annealed to template (the next template nucleotide is either dCMP or dTMP, as indicated), and 2 μM ddGTP-CF3-Coumarin was assembled in a quartz fluorescence ultra-microcuvet in a LS-55 Luminescence Spectrometer (Perkin Elmer), operated in time drive mode. Excitation and emission wavelengths are 390 nm and 500 nm respectively. Slit widths were 5 nm for excitation slits, 15 nm for emission slits. The reaction was initiated by the addition of 0.35 μl (11 units) of a cloned DNA polymerase I genetically engineered to eliminate 3′-5′ exonuclease activity, 5′-3′exonuclease activity and discrimination against dideoxynucleotides and 0.25 mM MnCl2. […]

[1] = 2 μM ddATP-CN-Coumarin, excitation 410 nm, emission 450 nm, FIG. 2
[2] = 2 μM ddGTP-CF3-Coumarin, excitation 390 nm, emission 500 nm, FIG. 1

SMILES	dye emission with Primer: Template 1 [1]	dye emission with Primer: Template 2 [1]	dye emission with Primer: Template 1 [2]	dye emission with Primer: Template 2 [2]
N#Cc1cc2ccc(OP(=O)(O)OP(=O)(O)OP(=O)(O)OC[C@@H]3CC[C@H](n4cnc5c(N)ncnc54)O3)cc2oc1=O [gamma labeled ddATP, γ-(3-Cyanocoumarinyl)ddATP]	No detectable dye emission	dye emission was detected		
Nc1nc2c(ncn2[C@H]2CC[C@@H](COP(=O)(O)OP(=O)(O)OP(=O)(O)Oc3ccc4c(C(F)(F)F)cc(=O)oc4c3)O2)c(=O)[nH]1 [gamma labeled ddGTP, γ-(4-trifluoromethylcoumarinyl)ddGTP]			dye emission was detected	No detectable dye emission
